Test results as given in publication PMC9088311, “Cyclic Thiosulfonates for Thiol-Mediated Uptake: Cascade Exchangers, Transporters, Inhibitors” (JACS Au, 2022).
Converted amounts (≈) assume the structure as drawn. “And” between values parts separate entries of the source, which are not always exact repeats. Equal values may be shown once.

Experiments:
HK cells, transporter 31 = assay: HCHT imaging: inhibition of cytosolic delivery of ETP transporter 31; format: cell-based, Human; conditions: co-incubation (C), inhibitor 1 h; for IC50 / IC15: Homo sapiens, 1 h; for IC50: read-out: IC50 (concentration needed to reach 50% inhibition), transporter 31 10 μM; for IC15: read-out: MIC (concentration needed to reach 15% inhibition), transporter 31 10 μM; for MIC (concentration needed to reach 15% inhibition): transporter 31 10 μM
Experimental: (§1) Uptake inhibition was measured by the automated HCHT imaging used already to elaborate on cytosolic delivery. For inhibitor screening, HK cells in multiwell plates were incubated with increasing concentrations of inhibitors, followed by fluorescent transporters 28, 31, and 32 at a constant concentration. […] If inhibitors are removed before the addition of transporters 28, 31, and 32, the method is referred to as “pre-incubation”. This is of interest to minimize exchange between the transporter and the inhibitor but is often problematic because dynamic covalent exchange between the inhibitor and cellular target can also be reversed and thus lost. The complementary “co-incubation” operates without inhibitor removal before the addition of transporters 28, 31, and 32.
(§2) 536/40 nm emission filter, and red with 531/40 nm excitation filter and 593/40 nm emission […]
(§3) 4.3. HCHT Inhibitor Screening
(§4) Pre-Incubation Method. As in ref. S1. HeLa Kyoto cells were seeded at 8 ×10^4 cells/mL in FluoroBrite DMEM + 10% FBS on μ-Plate 96-well Black ibiTreat sterile and incubated at 37 °C with 5% CO 2 for 24 h. Then, the medium was removed and cells were washed with PBS ([…]), fresh FluoroBrite DMEM medium (4 × 150 μL/well) was added into the cells using a plate washer (Biotek EL406®), keeping a final volume of 135 μL/well. Different concentrations of the inhibitors were prepared by serial dilution with 10% final concentration DMSO (10× in PBS). The solution of compounds 4 and 33 was prepared final DMSO concentration of 10% in each dilution (10× in PBS). These inhibitor solutions (10× final concentration), transporter 28 (10× in DMEM), transporters 31 and 32 (10× in PBS) a solution of HOE (100 μg/mL) and PI (10 μg/mL) in PBS were prepared freshly in a 96-well V-bottom plate before adding to the cells. The inhibitor solutions from the V-bottom plate were added to the cells (15 μL/well) in a final volume of 150 μL/well using an electronic multichannel pipette and cells were incubated for 1 h at 37 °C with 5% CO 2. After this incubation, cells were washed again with PBS and DMEM using the plate washer (in the way mentioned above), and transporter 28 , 31 or 32 from the V-bottom plate was added (15 μL/well) to the cells in a final volume of 150 μL/well. A final concentration of each transporter 28 , 31 and 32 was 5 μM, 10 μM and 0.5 μM, respectively, except for the control wells, where only PBS was added (15 μL/well). Cells treated with transporter 28 or 31 were incubated for 30 min, and cells treated with 32 were incubated for 2 h at 37 °C with 5% CO 2. After that, the cells were washed with PBS and DMEM using the plate washer, and the solution of Hoechst 33342 and PI from the V-bottom plate was added (15 μL/well) to the cells in a final volume of 150 μL/well. After 15 min of incubation at 37 °C with 5% CO 2, the cells were washed and kept in clean FluoroBrite
(§5) DMEM. For live cell imaging, samples were kept at 37 °C with 5% CO 2 during the microscope imaging. The distribution of fluorescence stained cells was analyzed without fixing using an […]

HeLa Kyoto cells = assay: Relative viability (HOE/PI) in HCHT screening
Experimental: One advantage of HCHT imaging of cellular uptake compared to flow cytometry[38],[42],[43] is that it simultaneously gives information on toxicity and intracellular localization. […] Information on the intracellular localization of reporters can be quantified through segmentation of cellular compartments stained with specific markers.[52]
as §1
Relative cell viability ( RV) for each condition in the presence of inhibitors was calculated […]
of the relative cell viability ( RVrel) to the concentration of inhibitors ( cinhibitor ) was plotted and fitted with Equation (S19) to retrieve the concentration causing 50% cell growth inhibition (RV50) value and the Hill coefficient ( n).

in vitro = conditions: human
[1] = Dynamic covalent ring opening with thiol 10, 1H NMR kinetics; format: physicochemical
Experimental: The dynamic covalent opening of CTO 3 with thiols yields product 9 with a disulfide and a sulfinate (Figure 3B). Consistent with short chalcogen bonds found in silico, the opening of CTO 3 was instantaneous on an NMR timescale with most thiols. To decelerate ring opening, bulky thiols were considered in combination with lowered pH to deactivate the nucleophile. With N-Ac-D-penicillamine 10, the opening of 5 mM CTO 3 in phosphate buffer/DMSO-d6 9:1 was still immediate at pD 6.7 but became detectable in ^1H NMR spectroscopy kinetics under more acidic conditions. The ring-opening rate constants k^O were estimated by fitting the initial velocities to second-order kinetics. Only lower bound rates were approximated from the earliest determined substrate conversions when reactions were still too fast despite the unfavorable conditions. At pD 5.4, dynamic covalent ring opening of CTO 3 with equimolar tertiary thiol 10 occurred with k^O > 0.49 M^–1 s^–1 and equilibrated at K = 6.0 × 10^3 M^–1 (Table 1, entry 1, Figures S4 and S5). At pD 2.7, further deceleration to k^O = 0.10 M^–1 s^–1 shifted the equilibrium to K = 500 M^–1 (Table 1, entry 2, Figures S6 and S7). […] At equilibrium, the concentration of thiol 10 further decreased slowly due to oxidation into the homodimer (Figure 3C, diamonds).
Equilibrium constants for reactions with two reactants A and B and a product C are […]
3.1.1. Dynamic Covalent Ring Opening with Thiols
General procedure A (at 5 mM): To a solution of deuterated sodium phosphate (200 mM in D 2O, pD 2.7 or 5.4, 180 mM final concentration), a stock solution of substrate (0.10 M in DMSO-d6, 5.0 mM final concentration) was added and stirred. Then a stock solution of 10 (0.10 M in DMSO- d6, 5.0 mM final concentration) was added and vigorously stirred at room temperature. The solution was transferred immediately to an NMR tube and NMR data were recorded repeatedly. The concentration of the substrate or thiol at each time plot was calculated by comparing the integrals of the peaks indicated with arrows in the figures, and plotted. The data points were fitted to obtain k1 with the Equation (S6) or (S7) using Graphpad Prism.
General procedure B (at 2 mM): To a solution of deuterated sodium phosphate (200 mM in D 2O, pD 2.7 or 5.4, 180 mM final concentration), DMSO- d6 (10% DMSO- d6 in the reaction mixture) and a stock solution of substrate (0.10 M in DMSO- d6, 2.0 mM final concentration) were added and stirred. Then a stock solution of 10 (0.10 M in DMSO- d6, 2.0 mM final concentration) was added and vigorously stirred at room temperature. The solution was transferred immediately to an NMR tube and NMR data were recorded repeatedly. The concentration of the substrate or thiol at each time plot was calculated by comparing the integrals of the peaks indicated with arrows in the figures, and plotted. The data points were fitted to obtain k1 with the Equation (S6) or (S7) using Graphpad Prism.
General procedure C (for thiosulfinates): To a solution of deuterated sodium phosphate (200 mM in D 2O, pD 5.4, 170 mM final concentration), a stock solution of substrate (0.10 M in DMSO- d6, 5.0 mM final concentration) was added and stirred. Then a stock solution of 10 (0.10 M in DMSO- d6, 10 mM final concentration) was added and vigorously stirred at room […]
data points were fitted to obtain k1 with the Equation (S14) or (S16) using Graphpad Prism. […]
3.1.2. Dependence of Ring Opening on Proticity
A mixture of deuterated phosphoric acid and NaOD (30% in D 2O), which gave pD 2.7 in D2O, was used as buffer in all solvent mixtures. To a solution of deuterated sodium phosphate (20 mM final concentration) in a mixture of D 2O and DMSO- d6 (540 μL, final D 2O content: […]
concentration) was added and stirred. Then a stock solution of 10 (0.10 M in DMSO- d6, 5.0 mM final concentration) was added and vigorously stirred at room temperature. The solution was transferred immediately to an NMR tube and 1H NMR data were recorded repeatedly. […]

HK cells, transporter 28 = assay: HCHT imaging: inhibition of cytosolic delivery of CTO transporter 28; format: cell-based, Human; conditions: pre-incubation (P), inhibitor 1 h
Experimental: as §1, §2, §3, §4, §5

[2] = with transporter 31, co-incubation (C)

Row | SMILES | IC50 (HK cells, transporter 31) [µM] | IC15 (HK cells, transporter 31) [µM] | MIC (concentration needed to reach 15% inhibition) (HK cells, transporter 31) [µM] | RV50 (concentration needed to lower relative viability by 50%) (HeLa Kyoto cells; [2]) [µM] | viability at 7 h, 50 µM (in vitro) [%] | further results
1 | O=c1c2ccccc2[se]n1-c1ccccc1 [Compound 46, Ebselen, reference compound] | 49 | < 2 | <2 | >100 | 40 | –
2 | O=C(O)c1cc(SSc2ccc([N+](=O)[O-])c(C(=O)O)c2)ccc1[N+](=O)[O-] [Compound 16, 5,5’-Dithiobis(2-nitrobenzoic acid), reference compound] | – | – | – | – | – | k^O, rate constant of ring opening (or equivalent for acyclic controls) ([1]; equimolar 10, rt, pD 5.4, 90% D2O/DMSO-d6, Na+ phosphate 180 mM, substrate 5 mM): 0.11 M^–1 s^–1; krel^O, rate constant of ring opening relative to 3 ([1]; pD 5.4, 90% D2O, 5 mM): <0.22; ring opening/exchange slower than CTO 3 (fold) ([1]; with thiol 10, pD 5.4): > 5 ×; viability at 7 h, 5 µM (in vitro): 89%
3 | CCCNC(=O)O[C@H]1CSS(=O)(=O)C[C@H]1O[Si](C)(C)C(C)(C)C [Compound 43] | – | – | – | – | – | IC15 (HK cells, transporter 28; Homo sapiens, 1 h, read-out: MIC (concentration needed to reach 15% inhibition), transporter 28 5 μM): 4.1 µM; IC50 (HK cells, transporter 28; Homo sapiens, read-out: IC50 (concentration needed to reach 50% inhibition), transporter 28 5 μM): > 50 µM; MIC (concentration needed to reach 15% inhibition) (HK cells, transporter 28; transporter 28 5 μM): 4 µM (≈ 1.53 µg/mL); viability at 7 h, 10 µM (in vitro): 87%
4 | CC(C)(C)[Si](C)(C)O[C@@H]1CS(=O)(=O)SC[C@@H]1O [Compound 6] | 5 ± 1 | < 1 | – | – | – | viability at 7 h, 5 µM (in vitro): 105 ± 7%
5 | O=S(O)CC(O)C(O)CSSCCSSCC(O)C(O)CS(=O)O (stereo not shown) [Compound 40] | 50 | 7.8 | 8 | >50 | 96 | –
6 | O=S(O)CC(O)C(O)CSSCC(O)C(O)CS(=O)O (stereo not shown) [Compound 37] | 60 ± 20 | 6.8 | 7 | >50 | 97 | –
7 | CSS(C)(=O)=O [Compound 14, reference compound] | – | – | – | – | – | k^O, rate constant of ring opening (or equivalent for acyclic controls) ([1]; equimolar 10, rt, pD 2.7, 90% D2O, Na+ phosphate 180 mM, substrate 2 mM): 0.52 M^–1 s^–1; krel^O, rate constant of ring opening relative to 3 ([1]; pD 2.7, 90% D2O, 2 mM): 5.2
8 | O=S1(=O)C[C@H](O)[C@@H](O)CS1 [Compound 15] | 22 | 1.5 | – | >500 | – | k^O, rate constant of ring opening ([1]; equimolar 10, rt, pD 2.7, 90% D2O/DMSO-d6, Na+ phosphate 180 mM, substrate 5 mM): >0.56 M^–1 s^–1; krel^O, rate constant of ring opening relative to 3 ([1]; pD 2.7, 90% D2O, 5 mM): >5.6; ring opening faster than 3 (fold) ([1]; with thiol 10, pD 2.7): 5 ×
9 | C#CCNC(=O)CC[C@H](NC(=O)COCCNC(=O)O[C@H]1CSS(=O)(=O)C[C@H]1O[Si](C)(C)C(C)(C)C)C(=O)NCCOCCNC(=O)O[C@H]1CSS(=O)(=O)C[C@H]1O[Si](C)(C)C(C)(C)C [Compound 44] | – | – | – | – | – | RV50 (concentration needed to lower relative viability by 50%) (HeLa Kyoto cells; with transporter 28, pre-incubation (P)): 4.1 ± 0.3 µM and 4 µM; viability at 7 h, 10 µM (in vitro): 98%
10 | CCN1C(=O)C2SSC1C(=O)N2CC(=O)NCCNC(=S)Nc1ccc(-c2c3ccc(=O)cc-3oc3cc(O)ccc23)c(C(=O)O)c1 (stereo not shown) [Compound 31, reference compound] | – | – | – | – | – | toxicity of transporters (in words) (HeLa Kyoto cells; conditions of HCHT screening (28 5 μM, 31 10 μM, 32 0.5 μM)): not toxic
11 | CC(=O)O[C@H]1CSS(=O)(=O)C[C@H]1O [Compound 36] | 27 | 2.1 | 2 | >50 | 97 | –
12 | CC(C)(C)[Si](C)(C)O[C@@H]1CS(=O)(=O)SC[C@@H]1OC(=O)NCC[N+](C)(C)C [Compound 38] | 47 | 23 | – | – | 37 | –
13 | NCCNC(=O)O[C@H]1CSS(=O)(=O)C[C@H]1O [Compound 39] | > 50 | 14 | – | >50 | 86 | –
